Each structure is given as a SMILES string. Calls of active or inactive are those of the source. The calls are words filed in the database; no cut-off is given here. Some results are limits rather than exact numbers.

System in one series: not listed separately
The series can be described thus: Cmax in CD-1 mouse brain at 10 mg/kg, po administered via gavage as single dose by LC/MS/MS analysis. The format is ADME, organism-based. The arrangement: dose 10 mg/kg, route oral.
Settings: not given
As a reminder, the Cmax is the maximum level reached in the sampled fluid or tissue. In turn, `CN(C)c1ccc2c(c1)OC(N)=C(C#N)C2c1ccccc1` (stereo not given) showed a Cmax of less than 100 nM.

Molecule `CCOC(=O)c1[nH]c2c(c1C)C(=O)CC(c1ccccc1Cl)C2` (stereo not given) registered a Cmax of less than 100 nM.

Molecule `COc1cc(OC)cc(C(=O)Nc2ccc(I)cn2)c1` came in with a maximum concentration (Cmax) of less than 100 nM.

Turning to `CCOC(=O)c1[nH]c2c(c1C)C(=O)CC(c1ccccc1)C2` (stereo not given), the Cmax is less than 100 nM.

In turn, `O=C(Cc1ccc(-c2ccccc2)cc1)NCc1ccccc1` returned a maximum concentration (Cmax) of less than 100 nM.

For `Cc1cc(C)c(S(=O)(=O)NCc2ccncc2)c(C)c1`, the Cmax is less than 100 nM.

Regarding `Cc1c(C(=O)OC(C)C)[nH]c2c1C(=O)CC(c1cccs1)C2` (stereo not given), the Cmax was less than 100 nM.

Turning to `CCN(CC)c1ccc2c(c1)OC(N)=C(C#N)C2c1ccccc1` (stereo not given), the Cmax was less than 100 nM.

Regarding `COc1ccc(Cl)cc1C(=O)N1CCN(c2cccc(Cl)c2)CC1`, the Cmax was less than 100 nM.

For the molecule `NC(=O)c1ccccc1NC(=O)c1cccnc1N1CCCCC1`, the Cmax is less than 100 nM.

In turn, `COc1ccc(S(=O)(=O)N2CCOc3ccccc32)cc1` had a Cmax of less than 100 nM.

System in a further series: not listed separately
The series can be described thus: Cytotoxicity against mouse N2a-cl3 cells assessed as cell viability after 2 days by calcein AM assay. The format is cell-based. The note with it: n2a-cl3, 48 h.
As for `COc1cc(OC)cc(C(=O)Nc2ccc(I)cn2)c1`, the Activity result is recorded as “Non-toxic”.

Regarding `CCOC(=O)c1[nH]c2c(c1C)C(=O)CC(c1ccco1)C2` (stereo not given), the Activity entry was “Non-toxic”.

Take `NC(=O)c1ccccc1NC(=O)c1cccnc1N1CCCCC1`: the Activity entry is “Non-toxic”.

The subject of a further series is Liver microsome. The series can be described thus: Half life in human liver microsomes at 1 uM by LC/MS/MS analysis. The format is ADME.
Settings: not given
With `O=C(Cc1ccc(-c2ccccc2)cc1)NCc1ccccc1`, the t1/2 came to 10.3 min.

`Cc1c(C(=O)OC(C)C)[nH]c2c1C(=O)CC(c1cccs1)C2` (stereo not given) had a t1/2 of 9.9 min.

`COc1ccc(Cl)cc1C(=O)N1CCN(c2cccc(Cl)c2)CC1`: the t1/2 stood at 6 min.

The molecule `NC(=O)c1ccccc1NC(=O)c1cccnc1N1CCCCC1` registered a t1/2 of 16.7 min.

Turning to `COc1ccc(S(=O)(=O)N2CCOc3ccccc32)cc1`, the t1/2 came to 2 min.

System in a further series: not listed separately
Kind of series: Cmax in CD-1 mouse plasma at 10 mg/kg, po administered via gavage as single dose by LC/MS/MS analysis. The format is ADME, organism-based. On the set-up: dose 10 mg/kg, route oral.
Settings: not given
For the molecule `CN(C)c1ccc2c(c1)OC(N)=C(C#N)C2c1ccccc1` (stereo not given), the peak concentration (Cmax) is less than 100 nM.

For `CCOC(=O)c1[nH]c2c(c1C)C(=O)CC(c1ccccc1Cl)C2` (stereo not given), the peak concentration (Cmax) was less than 100 nM.

The molecule `COc1cc(OC)cc(C(=O)Nc2ccc(I)cn2)c1` registered a Cmax of less than 100 nM.

In turn, `CCOC(=O)c1[nH]c2c(c1C)C(=O)CC(c1ccccc1)C2` (stereo not given) had a maximum concentration (Cmax) of less than 100 nM.

`O=C(Cc1ccc(-c2ccccc2)cc1)NCc1ccccc1`: the Cmax was less than 100 nM.

For `Cc1cc(C)c(S(=O)(=O)NCc2ccncc2)c(C)c1`, the Cmax was less than 100 nM.

Molecule `Cc1c(C(=O)OC(C)C)[nH]c2c1C(=O)CC(c1cccs1)C2` (stereo not given) had a Cmax of less than 100 nM.

For `CCN(CC)c1ccc2c(c1)OC(N)=C(C#N)C2c1ccccc1` (stereo not given), the Cmax was less than 100 nM.

Consider `COc1ccc(Cl)cc1C(=O)N1CCN(c2cccc(Cl)c2)CC1`, for which the Cmax was less than 100 nM.

Consider `NC(=O)c1ccccc1NC(=O)c1cccnc1N1CCCCC1`, for which the Cmax was less than 100 nM.

`COc1ccc(S(=O)(=O)N2CCOc3ccccc32)cc1` had a peak concentration (Cmax) of less than 100 nM.

In another series the test system is Liver microsome. Kind of series: Metabolic stability in human liver microsomes assessed as compound remaining at 1 uM after 60 mins by LC/MS/MS analysis. The format is ADME. The note with it: 1 h.
Turning to `O=C(Cc1ccc(-c2ccccc2)cc1)NCc1ccccc1`, the Stability is listed as 4.6%.

As to `Cc1c(C(=O)OC(C)C)[nH]c2c1C(=O)CC(c1cccs1)C2` (stereo not given), the Stability was determined as 1.6%.

For `COc1ccc(Cl)cc1C(=O)N1CCN(c2cccc(Cl)c2)CC1`, the Stability is 0.1%.

As to `NC(=O)c1ccccc1NC(=O)c1cccnc1N1CCCCC1`, the Stability came to 8.3%.

`COc1ccc(S(=O)(=O)N2CCOc3ccccc32)cc1`: the Stability came to 0%.

System in another series: not listed separately
The series can be described thus: Decrease in PrPc expression on mouse N2a-cl3 cell surface after 2 days by ELISA.
Settings: not given
The format is functional, cell-based. Background: In an ELISA, binding on a coated surface is turned into a signal by an enzyme label.
Consider `COc1cc(OC)cc(C(=O)Nc2ccc(I)cn2)c1`, for which the inhibition result was “Active”.

As to `CCOC(=O)c1[nH]c2c(c1C)C(=O)CC(c1ccco1)C2` (stereo not given), the inhibition entry is “Active”.

With `NC(=O)c1ccccc1NC(=O)c1cccnc1N1CCCCC1`, the inhibition entry was “Active”.

System in the next series: not listed separately
Kind of series: Cmax in CD-1 mouse brain at 10 mg/kg, ip administered as single dose by LC/MS/MS analysis. The format is ADME, organism-based. On the set-up: dose 10 mg/kg, route intraperitoneal.
Settings: not given
In turn, `CN(C)c1ccc2c(c1)OC(N)=C(C#N)C2c1ccccc1` (stereo not given) came in with a Cmax not above 16200 nM.

Take `CCOC(=O)c1[nH]c2c(c1C)C(=O)CC(c1ccccc1Cl)C2` (stereo not given): the Cmax is not above 16200 nM.

In the case of `COc1cc(OC)cc(C(=O)Nc2ccc(I)cn2)c1`, the Cmax is not above 16200 nM.

The molecule `CCOC(=O)c1[nH]c2c(c1C)C(=O)CC(c1ccccc1)C2` (stereo not given) showed a Cmax not above 16200 nM.

`O=C(Cc1ccc(-c2ccccc2)cc1)NCc1ccccc1` showed a Cmax not above 16200 nM.

`Cc1cc(C)c(S(=O)(=O)NCc2ccncc2)c(C)c1` came in with a peak concentration (Cmax) not above 16200 nM.

Turning to `Cc1c(C(=O)OC(C)C)[nH]c2c1C(=O)CC(c1cccs1)C2` (stereo not given), the Cmax is not above 16200 nM.

`CCN(CC)c1ccc2c(c1)OC(N)=C(C#N)C2c1ccccc1` (stereo not given) displayed a Cmax not above 16200 nM.

`COc1ccc(Cl)cc1C(=O)N1CCN(c2cccc(Cl)c2)CC1` yielded a Cmax not above 16200 nM.

The molecule `NC(=O)c1ccccc1NC(=O)c1cccnc1N1CCCCC1` had a Cmax not above 16200 nM.

As for `COc1ccc(S(=O)(=O)N2CCOc3ccccc32)cc1`, the Cmax was not above 16200 nM.

System in another series: not listed separately
The series can be described thus: Half life in mouse liver microsomes at 1 uM by LC/MS/MS analysis. The format is ADME, Microsome.
Settings: not given
In general terms: Liver microsomes are a subcellular fraction often used to study metabolism.
Molecule `O=C(Cc1ccc(-c2ccccc2)cc1)NCc1ccccc1` had a t1/2 of 18.5 min.

Turning to `Cc1c(C(=O)OC(C)C)[nH]c2c1C(=O)CC(c1cccs1)C2` (stereo not given), the t1/2 was 3.2 min.

The molecule `COc1ccc(Cl)cc1C(=O)N1CCN(c2cccc(Cl)c2)CC1` returned a t1/2 of 3 min.

For the molecule `NC(=O)c1ccccc1NC(=O)c1cccnc1N1CCCCC1`, the t1/2 was 2.8 min.

On to `COc1ccc(S(=O)(=O)N2CCOc3ccccc32)cc1`, for which the t1/2 is 0.7 min.

System in the next series: not listed separately
The series can be described thus: Metabolic stability in mouse liver microsomes assessed as compound remaining at 1 uM after 60 mins by LC/MS/MS analysis. The note with it: 1 h. It counts as ADME, Microsome.
Regarding `O=C(Cc1ccc(-c2ccccc2)cc1)NCc1ccccc1`, the Stability was found to be 5.8%.

On to `Cc1c(C(=O)OC(C)C)[nH]c2c1C(=O)CC(c1cccs1)C2` (stereo not given), for which the Stability came to 0.1%.

On to `COc1ccc(Cl)cc1C(=O)N1CCN(c2cccc(Cl)c2)CC1`, for which the Stability is 0.1%.

For the molecule `NC(=O)c1ccccc1NC(=O)c1cccnc1N1CCCCC1`, the Stability is on record as 0%.

In the case of `COc1ccc(S(=O)(=O)N2CCOc3ccccc32)cc1`, the Stability is recorded as 0%.

The subject of the next series is T98G. Kind of series: cells. The note with it: Homo sapiens, 48 h.
For orientation: EC50 means the concentration at which the effect is half-maximal. High values mean lower potency in that assay, low ones higher potency in that assay. Consider `COc1ccc(CC(=O)NCc2ccccc2)cc1`, for which the concentration giving a half-maximal response (EC50) came out at 3.13 µM.

`Cc1ccn2c(-c3csc(Nc4ccc(N(C)C)cc4)n3)c(C)nc2c1` came in with an EC50 of 0.11 µM.

`O=C(Cc1ccc(Br)cc1)NCc1ccccc1`: the EC50 came out at 2.33 µM.

The molecule `Cc1nc2ncccn2c1-c1csc(Nc2ccc(Cl)cc2)n1` gave a concentration giving a half-maximal response (EC50) of 2.44 µM.

`CCOC(=O)c1[nH]c2c(c1C)C(=O)CC(c1ccccc1Cl)C2` (stereo not given) displayed an EC50 of 0.45 µM.

Take `COc1cc(OC)cc(C(=O)Nc2ccc(I)cn2)c1`: it took 1.31 µM to reach a half-maximal effect (EC50).

Consider `CCOC(=O)c1[nH]c2c(c1C)C(=O)CC(c1ccccc1)C2` (stereo not given), for which the EC50 came out at 0.11 µM.

`O=C(Cc1ccc(-c2ccccc2)cc1)NCc1ccccc1`: the half-maximal effective concentration (EC50) is 0.44 µM.

The molecule `Cc1cc(C)c(S(=O)(=O)NCc2ccncc2)c(C)c1` had an EC50 of 4.13 µM.

`Cc1c(C(=O)OC(C)C)[nH]c2c1C(=O)CC(c1cccs1)C2` (stereo not given) yielded an EC50 of 0.24 µM.

For `CCN(CC)c1ccc2c(c1)OC(N)=C(C#N)C2c1ccccc1` (stereo not given), the EC50 worked out at 0.17 µM.

Regarding `CCOC(=O)c1[nH]c2c(c1C)C(=O)CC(c1ccco1)C2` (stereo not given), the concentration giving a half-maximal response (EC50) was 0.68 µM.

Consider `COc1ccc(Cl)cc1C(=O)N1CCN(c2cccc(Cl)c2)CC1`, for which the EC50 was 0.17 µM.

Take `NC(=O)c1ccccc1NC(=O)c1cccnc1N1CCCCC1`: the EC50 is 1.02 µM.

In turn, `CN(C)c1ccc2c(c1)OC(N)=C(C#N)C2c1cccs1` (stereo not given) returned an EC50 of 0.22 µM.

Molecule `O=C(Cc1ccc(Cl)cc1)NCc1ccccc1` came in with a 50% effective concentration (EC50) of more than 10 µM.

For the molecule `COc1ccc(S(=O)(=O)N2CCOc3ccccc32)cc1`, a half-maximal response (EC50) required 1.32 µM.

For another series, the system named is T98G. The series can be described thus: Cytotoxicity against human T98G cells assessed as decrease in cell viability after 2 days by calcein AM assay. The note with it: 48 h, read-out: LC50 (the source's name). The format is cell-based.
For the molecule `COc1ccc(CC(=O)NCc2ccccc2)cc1`, the CC50 is more than 10 µM.

For the molecule `O=C(Cc1ccc(Br)cc1)NCc1ccccc1`, the CC50 is more than 10 µM.

With `O=C(Cc1ccc(-c2ccccc2)cc1)NCc1ccccc1`, the CC50 was more than 10 µM.

Take `O=C(Cc1ccc(Cl)cc1)NCc1ccccc1`: the CC50 is more than 10 µM.
